Test: Cell viability (CC50) in the Clone VI RT-PCR experiment
Format: cell-based
Details: human, Experiment 1, genotype 1b
Description: Inhibition of HCV replication by compound AP0080978 (enantiomer 2 from Example 1) was also assayed by exposing cells harboring either HCV genotype 1a, HCV genotype 1b, HCV genotype 2a replicons. […] Final DMSO percentage was 1% in a total volume of 1 ml. After a 72 hour treatment period, total RNA was extracted, quantified via RiboGreen™ assay (Invitrogen-Molecular Probes, Eugene, Oreg., USA), and equivalent amounts of RNA were subjected to quantitative RT-PCR to quantify HCV RNA levels. […] For each replicate culture, HCV RNA levels were measured by blot hybridization and normalized to β-actin RNA levels. Cytotoxicity was measured using an established neutral red dye uptake assay (Korba and Gerin (1992) Antiviral Res 19:55; Okuse et al (2005) Antiviral Res 65: 23). […] Activity and toxicity against genotype 2a was evaluated in Huh7 cells harboring a stable hRluc-containing subgenomic genotype 2a replicon containing sequence from both J6 and JFH1 strains. […]
Additional compounds of formula (I) shown in FIG. 1 were also shown to inhibit HCV RNA replication. The effects of various compounds of formula (I) on HCV RNA replicon levels were determined by measuring HCV replicon RNA levels in cells treated with various concentrations of the compounds. […] Total RNA was extracted 72 hours later, and HCV and GAPDH RNA levels were quantified via quantitative RT-PCR. […]

In the case of `O=C(NCc1cccs1)c1nn2c(c1Cl)N[C@H](c1ccco1)C[C@@H]2C(F)(F)F` (single isomer, unassigned) [Compound 80978], the CC50 at 72 h was > 100 µM.
